Reference: patent publication US20020013306A1, “TERPYRIDINE-PLATINUM(II) COMPLEXES” (priority 1996, published 2002)

What was measured:
Assay type in all cases: cell-based
[1] = test system: CH1dox^R human ovarian carcinoma cell line (doxorubicin resistant); test: 96 h growth inhibition, sulforhodamine B assay, CH1doxR; details: for IC50: 96 h exposure, growth inhibition; for RF resistance factor: IC50 resistant line/IC50 parent line: CH1dox^R / CH1
T. cruzi (MHOM/BR/00/Y) = test: Trypanosoma cruzi in mouse peritoneal macrophages
Protocol: Trypanosoma cruzi: […] Drug activity was determined from the % of infected macrophages in treated cultures. Nifurtimox was used as the positive control.

[2] = test system: T. brucei (S427) bloodstream trypomastigotes; test: Trypanosoma brucei bloodstream trypomastigote culture
[3] = test system: A2780cis^R human ovarian carcinoma cell line (cisplatin resistant); test: 96 h growth inhibition, sulforhodamine B assay, A2780cisR; details: for IC50: 96 h exposure, growth inhibition, v = variable (mean); for RF resistance factor: IC50 resistant line/IC50 parent line: A2780cis^R / A2780
[4] = test system: CH1cis^R human ovarian carcinoma cell line (cisplatin resistant); test: 96 h growth inhibition, sulforhodamine B assay, CH1cisR; details: for IC50: 96 h exposure, growth inhibition, v = variable (mean); for RF resistance factor: IC50 resistant line/IC50 parent line: CH1cis^R / CH1
[5] = test system: A2780 human ovarian carcinoma cell line; test: 96 h growth inhibition, sulforhodamine B assay, A2780; details: 96 h exposure, v = variable (mean)
[6] = test system: SKOV3 human ovarian carcinoma cell line; test: 96 h growth inhibition, sulforhodamine B assay, SKOV3; details: 96 h exposure, v = variable (mean)
[7] = test system: CH1 human ovarian carcinoma cell line; test: 96 h growth inhibition, sulforhodamine B assay, CH1; details: 96 h exposure, v = variable (mean)

Row | Compound | IC50 [1] | RF resistance factor: IC50 resistant line/IC50 parent line [1] | % Inhibition, Trypanosoma cruzi (T. cruzi (MHOM/BR/00/Y); 1 μM) | % Inhibition, Trypanosoma cruzi (T. cruzi (MHOM/BR/00/Y); 3 μM) | % Inhibition, Trypanosoma cruzi (T. cruzi (MHOM/BR/00/Y); 10 μM) | % Inhibition, Trypanosoma brucei ([2]; 0.1 μM) | % Inhibition, Trypanosoma brucei ([2]; 0.3 μM) | % Inhibition, Trypanosoma brucei ([2]; 1 μM) | % Inhibition, Trypanosoma brucei ([2]; 3 μM) | % Inhibition, Trypanosoma brucei ([2]; 10 μM) | % Inhibition, Trypanosoma brucei ([2]; 30 μM) | IC50 [3] | RF resistance factor: IC50 resistant line/IC50 parent line [3] | IC50 [4] | RF resistance factor: IC50 resistant line/IC50 parent line [4] | IC50 [5] | IC50 [6] | IC50 [7] | % Inhibition, Trypanosoma cruzi (T. cruzi (MHOM/BR/00/Y); 30 μM)
1 | F[B-](F)(F)F.F[B-](F)(F)F.c1cc[n+]2c(c1)-c1cccc3[n+]1[Pt-2]2([n+]1ccsc1)[n+]1ccccc1-3 [Compound A6] | 6.3 µM | 0.4 | 0% | 0% | 5.0% | 75.4% | 100% | 100% | 100% | 100% | 100% | > 100 µM | 1 | 17 µM | 1 | 18.6 µM | > 100 µM | 17 µM | –
2 | Cc1ccncc1.F[B-](F)(F)F.F[B-](F)(F)F.NNc1cc(-c2ccccn2)nc(-c2ccccn2)c1.[Pt+2] [R, (4-Picoline)(4′-Hydrazino-2,2′:6′,2″-Terpyridine) Platinum (II) Tetrafluoroborate] | 5.3 µM | 0.3 | 60.8% | 57.7% | 65.8% | 4.9% | 29.6% | 100% | 100% | 100% | 100% | 89 µM | 2.3 | 13.5 µM | 0.8 | 39 µM | 80 µM | 16 µM | 60.1%
3 | CN(C)c1cc[n+]([Pt-2]23[n+]4ccccc4-c4cccc([n+]42)-c2cccc[n+]23)cc1.F[B-](F)(F)F.F[B-](F)(F)F [Compound A3] | 3.95 µM | 0.6 | 30.3% | 85.8% | 100% | 44.6% | 100% | 100% | 100% | 100% | 100% | 21.5 µM | 1.3 | 7.5 µM | 1.2 | 16 µM | 13 µM | 6.1 µM | 99.8%
4 | CN(N)c1cc(-c2ccccn2)nc(-c2ccccn2)c1.Cc1ccncc1.F[B-](F)(F)F.F[B-](F)(F)F.[Pt+2] [S, (4-Picoline)(4′-(1 -Methylhydrazino)-2,2′:6′,2″-Terpyridine) Platinum (II) Tetra-fluoroborate] | 14.5 µM | 0.2 | 60.9% | 53.3% | 53.3% | 0% | 22.5% | 44.4% | 98.3% | 100% | 100% | 62 µM | 3.4 | > 100 µM | – | 18 µM | > 100 µM | 65 µM | 334%
5 | CC#[N+][Pt-2]12[n+]3ccccc3-c3cccc([n+]31)-c1cccc[n+]12.F[B-](F)(F)F.F[B-](F)(F)F [Compound A8] | 13 µM | 0.7 | 0% | 0% | 4.0% | – | – | 100% | 100% | 100% | 100% | 100 µM | 2 | 18.5 µM | 1 | 50 µM | > 100 µM | 18 µM | 38.0%
6 | CN(NC(=O)CCCCC(=O)NN(C)c1cc(-c2ccccn2)nc(-c2ccccn2)c1)c1cc(-c2ccccn2)nc(-c2ccccn2)c1.Cc1ccncc1.Cc1ccncc1.F[B-](F)(F)F.F[B-](F)(F)F.F[B-](F)(F)F.F[B-](F)(F)F.[Pt+2].[Pt+2] [W, Adipoyl-Linked-Bis[4-Picoline(4′-(1 -Methylhydrazino)-2,2′:6′,2″-Terpyridine) Platinum(II)] Tetrafluoroborate] | 58 µM | 1.2 | 0% | 0% | 0% | 0% | 0% | 0% | 0% | 59.8% | 100% | 10.5 µM | 0.6 | 46 µM | 0.9 | 17 µM | > 100 µM | 48 µM | 8.3%
7 | Cc1ccncc1.Cc1ccncc1.F[B-](F)(F)F.F[B-](F)(F)F.F[B-](F)(F)F.F[B-](F)(F)F.O=C(CCCCC(=O)NNc1cc(-c2ccccn2)nc(-c2ccccn2)c1)NNc1cc(-c2ccccn2)nc(-c2ccccn2)c1.[Pt+2].[Pt+2] [V, Adipoyl-Linked-Bis[4-Picoline(4′-Hydrazino-2,2′:6′,2″-Terpyridine) Platinum(II)] Tetrafluoroborate] | 40 µM | 0.8 | 0% | 0% | 0% | 0% | 0% | 0% | 100% | 100% | 100% | 40 µM | 2.1 | 42 µM | 0.9 | 19 µM | 98 µM | 48 µM | 0%
8 | F[B-](F)(F)F.F[B-](F)(F)F.Fc1cccc[n+]1[Pt-2]12[n+]3ccccc3-c3cccc([n+]31)-c1cccc[n+]12 [Compound A4] | 5.4 µM | 0.3 | 3.0% | 6.0% | 93% | – | – | 100% | 100% | 100% | 100% | > 100 µM | – | 14 µM | 0.9 | 21.5 µM | > 100 µM | 15.5 µM | –
